In publication PMC7688903 (Frontiers in Microbiology, 2020):
Converted amounts (≈) assume the structure as drawn. Like-named read-outs stand apart in the source and are kept apart here. Marks after values point to notes of the source that are not given here. Where a SMILES comes first, the peptide text is derived from it. [ ]: non-standard residue; d: D form. hArg = N=C(N)NCCCC[C@H](N)C(=O)O; 2Thi = N[C@@H](Cc1cccs1)C(=O)O; Dab = NCC[C@H](N)C(=O)O; Dap = NC[C@H](N)C(=O)O

Columns and labels:
[1] = system: P. aeruginosa ATCC 27853; type: cell-based, Pseudomonas aeruginosa
Method: (§1) The antimicrobial activities of the peptides were tested against E. coli ATCC 25922, P. aeruginosa ATCC 27853, carbapenem-resistant P. aeruginosa SIPI-012, A. baumannii ATCC 19606, carbapenem-resistant A. baumannii SIPI-025, S. aureus ATCC 25923, and C. albicans ATCC 10231. The minimum inhibitory concentration (MIC) values were determined using the microdilution method according to Clinical and Laboratory Standards Institute guidelines ([CLSI, 2008], [2012]). The peptides were dissolved in 10 mM PB to a concentration of 1280 μg/mL as stock solutions.
(§2) For inoculum preparation of bacteria, morphologically similar colonies selected from fresh MH agar plates were transferred using a loop into approximately 10 mL of MH broth in a capped test tube and vortexed. The suspension was adjusted with MH broth to achieve a turbidity equivalent to a 0.5 McFarland standard (BaSO4 solution prepared spectrophotometrically). A working suspension was prepared by making a 1:15 dilution followed by a 1:20 dilution of the stock suspension with MH broth medium to obtain approximately 5 × 10^5 CFU/mL. For inoculum preparation of yeast, five fresh colonies of approximately 1 mm diameter were picked from 24-hour-old cultures of C. albicans and suspended in 5 mL of sterile 0.85% saline. The resulting suspension was vortexed and the cell density was adjusted by adding sufficient sterile saline to achieve a turbidity equivalent to a 0.5 McFarland standard. A working suspension was prepared by making a 1:100 dilution followed by a 1:20 dilution of the stock suspension with RPMI 1640 broth medium to obtain 0.5 × 10^3 to 2.5 × 10^3 CFU/mL. Intermediate twofold dilutions of the peptides were prepared in MH broth and RPMI 1640 medium, and 90 μL aliquots were added to each well in addition to 10 μL of the inoculum prepared above.
(§3) Each plate included a growth control well and a sterility (uninoculated) control well. Colistin, vancomycin hydrochloride, and amphotericin B were used as positive controls for gram-negative bacteria, gram-positive bacteria, and fungi, respectively. The bacterial and fungal plates were incubated at 37°C for 20 h and 35°C for 48 h, respectively, both under ambient atmosphere. The inhibition of microbial growth was assessed visually. The MICs were determined from independent triplicate assays.

[2] = system: carbapenem-resistant P. aeruginosa (CRPA) SIPI-012; type: cell-based, Pseudomonas aeruginosa
Method: as §1, §2, §3

[3] = system: C. albicans ATCC 10231; assay: microbe, parasite or virus in culture; type: cell-based, Candida albicans; conditions: ATCC 10231, 48 h
Procedure, shortened: (§4)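 Inocula were set to 0.5 McFarland and diluted to ~5 × 10^5 CFU/mL (bacteria, MH broth) or 0.5 × 10^3 to 2.5 × 10^3 CFU/mL (yeast, RPMI 1640). Peptide twofold dilutions were added, plates incubated 20 h at 37°C or 48 h at 35°C, then scored by eye.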

[4] = system: S. aureus ATCC 25923; assay: microbe, parasite or virus in culture; type: cell-based, Staphylococcus aureus; conditions: ATCC 25923, 20 h
Procedure, shortened: as §4

[5] = system: RAW 264.7 cells; assay: Cell viability assay (MTT); type: cell-based, mouse; conditions: 1–128 μM peptide in DMEM with 4% FBS, 42 h, 595 nm, triplicate
Method: The peptides were dissolved in ddH2O to a concentration of 256 μM. RAW 264.7 cells were cultured in 100 μL of DMEM containing 10% FBS and seeded at a density of 1 × 10^4 cells in a 96-well culture plate. The plate was incubated at 37°C under 5% CO2 atmosphere overnight. After attaining 80% confluency, the cells were treated with various concentrations of the peptides (1–128 μM) dissolved in DMEM containing 4% FBS for 42 h. Cytotoxicity was determined using the MTT tetrazolium reduction assay and quantified spectrophotometrically at 595 nm using a SpectraMax i3x microplate reader. The cell viability was calculated with respect to control samples treated only with DMEM containing 4% FBS ([Khara et al., 2016]). Each test was done in triplicate and the concentration required for 50% inhibition of viability (IC50) was determined.

[6] = system: carbapenem-resistant A. baumannii (CRAB) SIPI-025; type: cell-based, Acinetobacter baumannii
Method: as §1, §2, §3

[7] = system: A. baumannii ATCC 19606; type: cell-based, Acinetobacter baumannii
Method: as §1, §2, §3

[8] = system: proteases secreted by S. aureus ATCC 25923; assay: in vitro; conditions: Staphylococcus aureus, S. aureus ATCC 25923 culture supernatant, pH 8
Method: (§5) The stabilities of the peptides toward proteases secreted by E. coli ATCC 25922, P. aeruginosa ATCC 27853, A. baumannii ATCC 19606, S. aureus ATCC 25923, and C. albicans ATCC 10231 were also examined. Microbial supernatants were prepared by resuspending single colonies of each strain in 20 mL of an appropriate culture medium followed by incubation at 37°C overnight. MH broth and 2% tryptone/2% dextrose were used as the culture media for bacteria and yeast, respectively. Each culture was then centrifuged at 12,000 × g for 10 min and the supernatant was adjusted to pH 8.0 with HCl or NaOH and then filtered through a 0.22 μm sterile filter membrane ([Zaet et al., 2017]). The peptides were then dissolved in the filtered supernatants to a concentration of 0.5 mg/mL, and the peptide-free supernatants were used as negative controls. The samples were incubated at 37°C for 24 h in a water bath and then analyzed by RP-HPLC as described above.

[9] = system: proteases secreted by P. aeruginosa ATCC 27853; assay: in vitro; conditions: Pseudomonas aeruginosa, P. aeruginosa ATCC 27853 culture supernatant, pH 8
Method: as §5

[10] = system: E. coli ATCC 25922; type: cell-based, Escherichia coli
Method: as §1, §2, §3

[11] = system: human erythrocytes; assay: Hemolytic activity assay; type: cell-based; conditions: human RBC in PB, 37°C, 1 h, OD420, total lysis control 0.1% SDS, three technical replicates
Method: Whole blood was obtained from a healthy volunteer. The red blood cells (RBC) were then centrifuged (800 × g, 10 min), washed twice with PB, resuspended in 1 mL of PB, and incubated with various concentrations of the peptides (32–128 μM) at 37°C for 1 h. As a positive control, total lysis of the RBC was accomplished by incubation with 0.1% SDS. For each condition, three technical replicates were performed. After incubation, the RBC were centrifuged at 800 × g for 10 min and the amount of hemoglobin released into the supernatant was determined by measuring the optical density OD420 using a SpectraMax i3x microplate reader (Molecular Devices) ([Zaet et al., 2017]).

[12] = system: proteases secreted by C. albicans ATCC 10231; assay: in vitro; conditions: Candida albicans, C. albicans ATCC 10231 culture supernatant, pH 8
Method: as §5

[13] = system: P. aeruginosa ATCC 9027; assay: In vivo antibacterial activity, lethal intraperitoneal infection; conditions: BALB/c mice, lethal i.p. dose of P. aeruginosa ATCC 9027, 10 mg/kg i.p. at 1 and 8 h post-infection, n = 10
Method: The in vivo antibacterial activities of the peptides were evaluated in BALB/c mice using P. aeruginosa ATCC 9027 as a test strain. A total of 20 mice (6 weeks old, approximate weight: 18–20 g, SFP grade) were first used to measure the minimal lethal doses (MLD) with 5 mice for each inoculum. Cell numbers of selected strains were determined from the colony numbers from the plate count agar and four inocula (1 × 10^6, 5 × 10^6, 1 × 10^7, and 5 × 10^7 CFU/mouse) were administered via intraperitoneal injection. The minimal lethal dose was determined by measuring the mortality rate after 72 h. BALB/c mice were then injected intraperitoneally with a lethal dose of P. aeruginosa ATCC 9027. […] Colistin (10 mg/kg) was used as a positive control. The survival of the animals was monitored over 7 d.

[14] = system: BALB/c mice; assay: In vivo acute toxicity, single injection; set-up: species or system mouse; conditions: three mice, monitored 24 h
Method: Six-week-old mice (approximate weight: 18–20 g, SFP grade) were bred and maintained under specific pathogen-free conditions on a 12 h light/dark cycle. The peptides were dissolved in PBS (pH 7.4) and three mice were used for each dose. As a control, colistin was administered in a similar manner. The mice were monitored for 24 h and mice were weighed at the end of the experiment. The procedure was evaluated and approved by the Ethical Committee of Experimental Animals of the Chia Tai Tianqing Pharmaceutical Group in August 2019.
As summarized in Figure 6, a toxicity score was assigned as follows: no abnormalities = without signs; mild depression, poor motility, purple-black tail, and recovery in 1 h = mild signs; serious depression and poor motility even under stimulation = manifest signs; sudden death within 10 min = died of toxic effects.

[15] = carbapenem-resistant (CRPA) SIPI-012, 20 h
[16] = carbapenem-resistant (CRAB) SIPI-025, 20 h

Compound | MIC ([1]; ATCC 27853, 20 h) [µg/mL] | MIC [2, 15] [µg/mL] | MIC [3] [µg/mL] | MIC [4] [µg/mL] | IC50 [5] [µM] | MIC [6, 16] [µg/mL] | MIC ([7]; ATCC 19606, 20 h) [µg/mL] | remaining at 24 h, 0.5 mg/mL [8] [%] | MIC ([10]; ATCC 25922, 20 h) [µg/mL] | Hemolysis rate (%) ([11]; 64 μM) | Hemolysis rate (%) ([11]; 128 μM) | remaining at 24 h, 0.5 mg/mL [12] [%] | also measured
CC(C)C[C@H](NC(=O)[C@H](Cc1ccc(O)cc1)NC(=O)[C@H](CCN)NC(=O)[C@H](CC(C)C)NC(=O)[C@H](CC(C)C)NC(=O)[C@H](CN)NC(=O)[C@H](CN)NC(=O)[C@H](Cc1ccccc1)NC(=O)[C@H](CC(C)C)NC(=O)[C@H](CCCCNC(=N)N)NC(=O)[C@@H](N)CN)C(=O)N[C@@H](CCCCNC(=N)N)C(=O)N[C@@H](CCN)C(=O)N[C@@H](Cc1cccs1)C(N)=O [UP11] (H-[Dap][hArg]LF[Dap][Dap]LL[Dab]YL[hArg][Dab][2Thi]-NH2) | 2 (≈ 1.15 µM) | 8 (≈ 4.62 µM) | 4 (≈ 2.31 µM) | 1 (≈ 0.577 µM) | 28.3 ± 5.8 | 2 (≈ 1.15 µM) | 2 (≈ 1.15 µM) | 35.7 ± 3.82 | 2 (≈ 1.15 µM) | 95.65 ± 2.31 | ∼100.00* % | – | remaining at 24 h, 0.5 mg/mL [9]: 22.4 ± 1.72%
CC(C)C[C@H](NC(=O)[C@H](Cc1ccc(O)cc1)NC(=O)[C@H](CCN)NC(=O)[C@H](CC(C)C)NC(=O)[C@H](CC(C)C)NC(=O)[C@H](CCN)NC(=O)[C@H](CCN)NC(=O)[C@H](Cc1ccccc1)NC(=O)[C@H](CC(C)C)NC(=O)[C@H](CCCCNC(=N)N)NC(=O)[C@@H](N)CCN)C(=O)N[C@@H](CCCCNC(=N)N)C(=O)N[C@@H](CCN)C(=O)N[C@@H](Cc1ccccc1)C(N)=O [UP13] (H-[Dab][hArg]LF[Dab][Dab]LL[Dab]YL[hArg][Dab]F-NH2) | 2 (≈ 1.13 µM) | 4 (≈ 2.26 µM) | 4 (≈ 2.26 µM) | 0.5 (≈ 0.283 µM) | 21.7 ± 4.14 | 2 (≈ 1.13 µM) | 2 (≈ 1.13 µM) | 78.5 ± 3.39 | 2 (≈ 1.13 µM) | 41.03 ± 1.38 | ∼100.00* % | 34 ± 6.12 | –
CC(C)C[C@H](NC(=O)[C@H](Cc1ccc(O)cc1)NC(=O)[C@H](CCN)NC(=O)[C@H](CC(C)C)NC(=O)[C@H](CC(C)C)NC(=O)[C@H](CCN)NC(=O)[C@H](CN)NC(=O)[C@H](Cc1cccs1)NC(=O)[C@H](CC(C)C)NC(=O)[C@H](CCCNC(=N)N)NC(=O)[C@@H](N)CCN)C(=O)N[C@@H](CCCCNC(=N)N)C(=O)N[C@@H](CCN)C(=O)N[C@@H](Cc1ccccc1)C(N)=O [UP15] (H-[Dab]RL[2Thi][Dap][Dab]LL[Dab]YL[hArg][Dab]F-NH2) | 1 (≈ 0.573 µM) | 4 (≈ 2.29 µM) | 4 (≈ 2.29 µM) | 1 (≈ 0.573 µM) | 28.7 ± 3.52 | 2 (≈ 1.15 µM) | 2 (≈ 1.15 µM) | 54.6 ± 4.19 | 2 (≈ 1.15 µM) | 54.16 ± 2.02 | 97.86 ± 3.07 % | 21.1 ± 5.28 | –
colistin [reference compound] | – | – | – | – | – | – | – | – | – | – | – | – | MIC ([1]; P. aeruginosa ATCC 27853, MH broth, 37°C, 20 h, visual, independent triplicate assays): 0.5 µg/mL; MIC ([2]; CRPA SIPI-012, MH broth, 37°C, 20 h, visual, independent triplicate assays): 1 µg/mL; survival rate ([13]; after 3 d): 100%; survival rate ([13]; after 7 d): 100%; signs of toxicity after intravenous injection ([14]; single i.v. dose 10 mg/kg): two out of three mice dying immediately; signs of toxicity after intravenous injection ([14]; single i.v. dose 20 mg/kg): all three mice dying; MIC ([6]; CRAB SIPI-025, MH broth, 37°C, 20 h, visual, independent triplicate assays): 0.25 µg/mL; MIC ([7]; A. baumannii ATCC 19606, MH broth, 37°C, 20 h, visual, independent triplicate assays): 0.25 µg/mL; MIC ([10]; E. coli ATCC 25922, MH broth, 37°C, 20 h, visual, independent triplicate assays): 0.25 µg/mL
